Experimental data reported in patent US20170298051A1, “ACTIVATOR OF ADIPONECTIN RECEPTOR” (THE UNIVERSITY OF TOKYO, priority 2013, published 2017).

Tests used:
AdipoR1 = target: T1, AdipoR1 (Mus musculus, UniProt Q91VH1); experiment: Measurement of AMPK phosphorylation ability (Assay 1), differentiated C2C12 cells, Western blotting; assay type: cell-based; settings: 10 μM, 10 minutes
T1 construct: C2C12 cells (ATCC; CRL-1772, medium; host or cells: differentiated C2C12
T1 sequence (Q91VH1 1-375): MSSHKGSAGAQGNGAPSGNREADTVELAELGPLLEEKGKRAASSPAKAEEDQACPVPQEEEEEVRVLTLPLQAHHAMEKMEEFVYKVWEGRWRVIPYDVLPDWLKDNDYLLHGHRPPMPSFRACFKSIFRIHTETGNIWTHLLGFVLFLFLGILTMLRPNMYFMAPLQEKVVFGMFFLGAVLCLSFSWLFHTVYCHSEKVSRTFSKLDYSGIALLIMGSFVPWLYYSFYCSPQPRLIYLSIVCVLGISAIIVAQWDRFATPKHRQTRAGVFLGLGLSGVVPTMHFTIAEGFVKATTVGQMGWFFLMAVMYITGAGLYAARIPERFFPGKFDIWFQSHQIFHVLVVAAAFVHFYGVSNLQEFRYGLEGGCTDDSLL
Description: The AMPK phosphorylation ability of the respective compounds according to the present invention was measured by using differentiated C2C12 cells or HEK 293T cells.
C2C12 cells (ATCC; CRL-1772, medium; DMEM, 10% FBS) were cultured in a 12- or 24-well plate until they reached 100% confluency (37° C., 5% CO2).
The medium was changed to 2.5% Horse Serum (HS) and differentiation was started. The medium (DMEM, 2.5% HS) was replaced every three days.
After starvation, a test compound listed in Table 12 (concentration: 10 μM) was added thereto, and after 10 minutes, the medium was discarded and the plate was frozen with liquid nitrogen.
To the 12- or 24-well cell plate which had been frozen was added 100 or 150 μL of Cell lysis buffer pH 7.4 (50 mM HEPES (pH 7.4), 2 mM sodium orthovanadate, 10 mM sodium pyrophosphate, 10 mM NaF, 2 mM EDTA, 2 mM EGTA, 0.1% (v/v) NP-40, 0.2 mM PMSF), and the cells were scraped off with a cell scraper, suspended and transferred into a micro centrifugal tube. And then, the cells were ultrasonically crushed (1 second×3 times) with a sonicator. Centrifugation was performed at 4° C. at 15,000 rpm for 15 minutes, and the supernatant was recovered into a new tube.
To 100 μL of the supernatant was added 25 μL of 5× sample buffer (280 mM Tris-HCl (pH 6.9), 40% glycerol, 10% (3-mercaptoethanol, 13% SDS, a small amount of bromophenol blue) and mixed together. The rest of the supernatant was used for protein quantification, and the protein concentrations were uniformed by adding 1× sample buffer depending on the concentration of each sample.
An electrophoresis chamber was filled with 1× SDS buffer (25 mM Tris-HCl, 250 mM glycine, 0.1% SDS), and the sample was applied to a well of polyacrylamide gel. Electrophoresis was performed until the bromophenol blue in the sample reached to the bottom of the gel.
A filter paper was soaked in 1× Transfer buffer sufficiently, above which the PVDF membrane and the gel after electrophoresis were stacked in this order, and thereabove a filter paper which had been soaked in 1× Transfer buffer sufficiently was further stacked, from which an air was removed and the resultant was set in semi-dry type transfer apparatus and transferred (7V, 35 minutes).
An unnecessary portion of the blotted membrane was cutoff, and the rest was immediately soaked in blocking buffer (5% skimmed milk in Rinse buffer), and shaken at room temperature at 40 rpm for 3 hours.
After blocking, the membrane was transferred into Rinse buffer, and washed at room temperature for 10 minutes while shaking. The membrane was soaked in a primary antibody solution (AMPK alpha Antibody (Cell signaling; #2532) 1/1,000 in Rinse buffer, Phospho-AMPK alpha (Thr172) (40H9) antibody (Cell signaling; #2535) 1/1,000 in Rinse buffer), and shaken at 4° C. at 40 rpm overnight.
The membrane was soaked in a secondary antibody solution (goat anti-rabbit IgG-HRP Antibody (Santa Cruz; sc-2030) 1/2,000 in Rinse buffer), and shaken at room temperature at 40 rpm for 1 hour.
After the membrane was washed for 45 minutes in the same way as after the primary antibody reaction, the membrane was soaked in a chemiluminescent reaction solution (ECL Western Blotting Detection Reagents, GE Healthcare) for about 1 minute. An excess of the reaction solution was removed, and then the membranes were arranged on a transparent film and sandwiched with it, with which an X-ray film was exposed in a darkroom (for about several seconds to 60 seconds) to develop the film.
The X-ray film was scanned to take the image, for which the band was measured by using the image analysis software “Image J” to determine the respective amounts of pAMPK and AMPK.

AMPK = AMPK phosphorylation in vivo in skeletal muscle and liver; set-up: species or system mice; settings: intravenous 50 mg/kg
Description: Immunoblotting was carried out according to the method described previously by which the livers, muscles or white adipose tissues were freeze-clamped in liquid nitrogen in situ^b,d,e.
The procedures used for immunoprecipitation and immunoblotting have been described previously^a,f. Muscle, liver or cell lysates were incubated with 60 μl of protein G sepharose linked to antibodies against phosphotyrosine (4G10) (Merck Millipore). Beads were then washed, the resultant was boiled for 5 min in a sample buffer and the immunoprecipitates were subjected to immunoblotting. Phosphorylation and/or the protein levels of AMPKα (Cell signaling #2535, #2532), IRβ (Upstate 05-321, Santa Cruz sc-711), AKT (Cell signaling #9271, #9272), GSK3 (Cell signaling #5558, #9315) and tubulin (NeoMarkers RB-9281-PO) were determined as described^a,g,h.

O=C(COc1ccc(C(=O)c2ccccc2)cc1)NC1CCN(Cc2ccccc2)CC1 [Compound 73, 2-(4-benzoyl-phenoxy)-N-(1-benzylpiperidin-4-yl)acetamide]
pAMPK/AMPK (%) (AdipoR1): 84.33% | phosphorylation of AMPK in skeletal muscle and liver (AMPK; Adipor1/r2 double-knockout mice): but not in Adipor1/r2 double-knockout mice | phosphorylation of AMPK in skeletal muscle and liver (AMPK; wild-type (WT) mice): significantly induced phosphorylation of AMPK
